“Also recorded” adds a separate entry of the source.
Key:
[1] = system: HCT-116 colon cancer tumor; assay: HCT116 xenograft mouse model; assay type: in vivo, nu/nu mice; conditions: 20 mg/kg i.p. every 5 days, until 20 days post-treatment
Method: The effect of GS27 on colon cancer tumor growth in mice was evaluated in a HCT116 xenograft mouse model. HCT-116 is a human colorectal cancer cell line that has a mutation in RAS proto-oncogene.
Xenograft tumors were generated by injecting HCT-116 colon cancer cells (5×10^6) into the right flank of female nu/nu mice (Charles River Laboratories). All mice developed tumors in 10 days with size of approximately 100 mm3. For each experiment, mice were randomly distributed into equal groups (4 mice per group) that were untreated, or treated by intraperitoneal injections every 5 days with 20 mg/kg GS27 or GS19 (oleocanthal). Tumor volume (average, SD) was evaluated until 20 days post-treatment.

pACLY (S455) = assay: ELISA of pACLY (S455) / ACLY enzymatic activity in PANC-1 cells; assay type: cell-based, human; conditions: 5 μM
Method: ELISA assay was used to evaluate the effect of GS compounds on protein activity levels in PANC-1 cancer cells. PANC-1 cells were serum-starved overnight and then treated with rIGF1 (100 ng/mL) for 24 hours, with or without GS27 (5 μM). The levels of the following proteins were evaluated by ELISA assay: a) p70 S6 (T389) (cat no. 54164C, Cell Signaling); b) pAKT (S473), (cat no. 80895, Cell Signaling); c) pACLY (S455), (cat no. okag1672, Avivasysbio); d) pAMPK (T172) (cat no. 7959C, Cell Signaling) and e) p65/NFKB (S536), (cat no. 7173, Cell Signaling).
PANC-1 is a human pancreatic ductal adenocarcinoma cell line derived from the carcinoma of a person.
The molecular mechanism of action of GS27, a compound that has exerted potent anti-cancer activity in different cancer cell lines including pancreatic cancer cells, was investigated. Oleacein has been implicated to have anti-inflammatory and metabolic effects, thus the potential effects of GS27 in different metabolic and inflammatory pathways were evaluated. Specifically, the protein levels of p70 S6 (T389), pAKT (S473), pACLY (S455), pAMPK (T172) and p65/NFKB (S536) were evaluated by ELISA assay in PANC-1 pancreatic cancer cells treated with 5 μM GS27. GS27 reduced p70 S6 and AKT phosphorylation levels, while it increased AMPK phosphorylation.
The effects of different GS compounds on ACLY enzymatic activity were evaluated by ELISA assay in PANC-1 pancreatic cancer cells. […] This finding is unexpected, since GS21 has a very similar structure with GS27, with the only difference being the presence of an oxygen atom in ester GS21 instead of a sulfur atom in thioester GS27.

[2] = system: AsPC-1 pancreatic cancer tumor cells; assay: Nile red lipid content of AsPC-1 xenograft tumors; assay type: in vivo, mice; conditions: 100 mg/kg i.p., tumors collected 24 days post-treatment
Method: Tumors derived from the mice treated by intraperitoneal injection with GS27 at 100 mg/kg were collected 24 days post-treatment. The tumors were evaluated for their lipid content using the dye nile red as a fluorescent vital stain for the detection of intracellular lipid droplets by fluorescence microscopy and flow cytofluorometry, as described previously (Greenspan, Peter et al., J Cell Biol, 1985, 100(3):965-973). […] Quantification of the data is shown in the bar graph.

[3] = Superoxide anion radical scavenging assay (NBT reduction); assay type: biochemical; conditions: NS = not statistically significant
From the text: These radicals may also play an important role in the peroxidation of unsaturated fatty acids and possibly other susceptible substances.
Under aerobic conditions, superoxide anion radicals are generated nonenzymatically in a NADH-PMS system by oxidation of […] (NADH) with phenazine methosulphate (PMS) in the presence of dissolved oxygen. (See, Nimse, Satish B. et al., RSC Adv, 2015, 5: 27986, “Free radicals, natural antioxidants, and their reaction mechanisms”). The superoxide anion radical O2.^− reduces the pale yellow colored nitroblue tetrazolium cation (NBT^2+) to a blue colored formazan dye, which is measured spectrophotometrically at 560 nm. The decrease of absorbance at 560 nm with antioxidant indicates the consumption of […] in the reaction mixture (FIG. 4).
The superoxide anion radical scavenging activity of each GS compound was determined using the nitro-blue tetrazolium (NBT) reduction method (Cos, Paul et al., J Nat Prod. 1998; 61(1): 71-76). The results were calculated as the percentage of inhibition according to the following formula: I (%)=100 [1−(S−SB)/(C−CB)] Where S, SB, C, and CB are the absorbance of the sample, the blank sample, the control, and the blank control, respectively.

[4] = DPPH radical scavenging assay; assay type: biochemical; conditions: NS = not statistically significant
Method: The method of assessing the antioxidant capacity through the binding of the stable DPPH. radical was performed for the first time by Brand-Williams et al. in 1995 (Brand-William, W. et al., Lebensm Wiss Technol, 1995, 28: 25-30, “Use of a free radical method to evaluate antioxidant activity”). The method used herein is a variation of the original method and is one of the most characteristic and simple methods for the initial assessment of the antioxidant activity of antioxidant molecules or extracts rich in compounds with antioxidant properties.
The assessment of antioxidant capacity is based on the interaction of the tested molecules with the stable radical of 2,2-diphenyl-1-picrylydrazyl (DPPH). The DPPH. radical can be inactivated either by the addition of an electron or by a hydrogen atom. It is a stable organic nitrogen radical that is purple in color and absorbs at 517 nm. When a substance with antioxidant activity is added to the radical solution, then 2,2-diphenyl-1-picrylydrazyl (DPPH.) is reduced by the addition of a hydrogen atom (or electron) and converted to 2,2-diphenyl-1-picrylhydrazine (DPPH) which has a yellow color, resulting in reduction to the visual absorption (FIG. 2).
The effects of GS compounds on DPPH radical was evaluated as described previously (Spanou, C et al., Anticancer Research, 2007, 27: 3403-3410). Briefly, the assay was carried out in 1 mL of methanol containing 100 μM freshly made DPPH in methanol and the tested GS compound at different concentrations. The contents were vigorously mixed, incubated at room temperature in the dark for 20 minutes and the absorbance was read at 517 nm using a Hitachi U-1500 Spectrophotometer (San Jose, USA). In each experiment, the tested extract alone in methanol was used as blank and DPPH alone in methanol was used as control. […] The radical scavenging capacity (RSC) of the tested extracts was expressed as a percentage of DPPH elimination calculated according to the following equation: % RSC=[(absorbance of control−absorbance of GS compound)/absorbance of control]×100.

Row | DPPH Radical Scavenging Assay IC50 [4] [μg extract/mL] | Structure (SMILES) | ACLY enzymatic activity (ELISA) (pACLY (S455)) | further results
1 |  | C/C=C(/C=O)[C@@H](CC=O)CC(=O)SCCc1ccccc1 [GS27, S-phenethyl (3S,4E)-4-formyl-3-(2-oxoethyl)hex-4-enethioate] | dramatic effect on reducing; also recorded: substantially reducing | tumor size inhibition, HCT-116 colon cancer tumor growth [1]: > 60%; reduction in the lipid content of AsPC-1 tumor cells [2]: 55%
2 | 5.9 | C/C=C1/[C@H](OC2OC(CO)C(O)C(O)C2O)OC=C(C(=O)O)[C@H]1CC(=O)OCCc1ccc(O)c(O)c1 (stereo in doubt) [GS6, (2S,4S,E)-4-(2-(3,4-dihydroxyphenethoxy)-2-oxoethyl)-3-ethylidene-2{[(2R,3S,4R,5R,6S)-3,4,5-trihydroxy-6-(hydroxymethyl)tetrahydro-2H-pyran-2-yl]oxy}-3,4dihydro-2H-pyran-5-carboxylic acid] |  | Superoxide Anion Radical Scavenging Assay IC50 [3]: 23.2 μg extract/mL
3 | 11.5 | C/C=C(/C=O)[C@@H](CC=O)CC(=O)OCCc1ccc(O)c(O)c1 [GS17, (3S,4E)-4-formyl-3-(2-oxoethyl)-4-hexenoic acid 2-(3,4-dihydroxyphenyl)ethyl ester, reference compound] |  | 
4 |  | C/C=C(/C=O)[C@@H](CC=O)CC(=O)OCCCSC [GS28, (3S,4E)-4-formyl-3-(2-oxoethyl)-4-hexenoic acid 3-(methylthio)propyl ester] | did not show any effect | 
5 |  | C/C=C(/C=O)[C@@H](CC=O)CC(=O)OCCOc1ccccc1 [GS24, (3S,4E)-4-formyl-3-(2-oxoethyl)-4-hexenoic acid 2-phenoxyethyl ester] | small effect | 
6 |  | C/C=C(/C=O)[C@@H](CC=O)CC(=O)OCCc1ccc(O)cc1 [GS19, (3S,4E)-4-formyl-3-(2-oxoethyl)-4-hexenoic acid 2-(4-hydroxyphenyl)ethyl ester, reference compound] |  | tumor size inhibition, HCT-116 colon cancer tumor growth [1]: did not show any significant effect
7 | 13.8 | C/C=C1/[C@H](O[C@@H]2O[C@H](CO)[C@@H](O)[C@H](O)[C@H]2O)OC=C(C(=O)OC)[C@H]1CC(=O)OCCc1ccc(O)c(O)c1 [GS1, oleuropein] |  | Superoxide Anion Radical Scavenging Assay IC50 [3]: 40.5 μg extract/mL
8 |  | C/C=C(/C=O)[C@@H](CC=O)CC(=O)OCCCCCCCCCCCCCCCC [GS26, (3S,4E)-4-formyl-3-(2-oxoethyl)-4-hexenoic acid hexadecyl ester] | did not show any effect | 

— patent US12414960B2, “Analogues of oleuropein and oleacein and uses thereof” (Attica Sciences Ltd., priority 2020, dated 2025)
